Experimental data published in patent US4001209A, “Antibiotic G-52 and method for the production thereof” (Schering Corporation, priority 1975, dated 1977).
≈ marks a conversion by molar mass, not a printed value.

Assays:
Escherichia coli = assay: Protective Activity in mice; format: in vivo, Mice (Carworth Farms CF-1); settings: sc, S.C., single dose of antibiotic (sulfate) 1 hour after intraperitoneal infection (10^7 organisms), survivors at 48 hours, read-out: PD50
Procedure: (§1) a. Mice (Carworth Farms CF-1 weighing about 18 - 20 grams) are treated with a single dose of antibiotic (sulfate) one (1) hour after an intraperitoneal infection with a lethal (10^7 organisms) quantity of the infectious organism. The number of survivors are determined 48 hours after infection and the data analyzed by standard probit procedures to determine the PD50 values with 95% confidence limits.

Pseudomonas aeruginosa = assay: Protective Activity in mice; format: in vivo, Mice (Carworth Farms CF-1); settings: sc, S.C., single dose of antibiotic (sulfate) 1 hour after intraperitoneal infection (10^7 organisms), survivors at 48 hours, read-out: PD50
Procedure: as §1

[1] = tested on: Staphylococcus aureus Gray; assay: Protective Activity in mice; format: in vivo, Mice (Carworth Farms CF-1); settings: sc, S.C., single dose of antibiotic (sulfate) 1 hour after intraperitoneal infection (10^7 organisms), survivors at 48 hours, read-out: PD50
Procedure: as §1

Streptococcus pyogenes C = assay: Minimum Inhibitory Concentration; format: cell-based; settings: Tryptose phosphate broth at pH 7.2
From the text: (§2) Test Medium: Tryptose phosphate broth at pH 7.2.

Escherichia coli 578 = assay: Minimum Inhibitory Concentration; format: cell-based; settings: Tryptose phosphate broth at pH 7.2
From the text: as §2

[2] = tested on: Klebsiella pneumoniae Ad 17 - kR; assay: Minimum Inhibitory Concentration; format: cell-based; settings: AD17KR, pH 7.2
From the text: as §2

Proteus mirabilis 8019 = assay: Minimum Inhibitory Concentration; format: cell-based; settings: Tryptose phosphate broth at pH 7.2
From the text: as §2

Escherichia coli 11775 = assay: Minimum Inhibitory Concentration; format: cell-based; settings: Tryptose phosphate broth at pH 7.2
From the text: as §2

Staphylococcus aureus 45 = assay: Minimum Inhibitory Concentration; format: cell-based; settings: Tryptose phosphate broth at pH 7.2
From the text: as §2

[3] = tested on: Staphylococcus aureus 209P; assay: Minimum Inhibitory Concentration; format: cell-based; settings: Tryptose phosphate broth at pH 7.2
From the text: as §2

[4] = tested on: Pseudomonas aeruginosa 236 - GR; assay: Minimum Inhibitory Concentration; format: cell-based; settings: Tryptose phosphate broth at pH 7.2
From the text: as §2

[5] = tested on: Pseudomonas aeruginosa 130 - GR; assay: Minimum Inhibitory Concentration; format: cell-based; settings: Tryptose phosphate broth at pH 7.2
From the text: as §2

[6] = tested on: Salmonella paratyphi 13311; assay: Minimum Inhibitory Concentration; format: cell-based; settings: Salmonella enterica, pH 7.2
From the text: as §2

Solubility = format: physicochemical
Acute Toxicity = settings: mouse, in vivo, sc
Procedure: b. The acute toxicity of Antibiotic G-52 in the form of the sulfate salt is determined in the standard manner by administration of the antibiotic to mice (CF-1) intravenously, subcutaneously and intraperitoneally. The results are analyzed by standard probit procedures to determine the LD50 values with 95% confidence limits.

[7] = tested on: Staphylococcus aureus A.T.C.C. 6538P; assay: standard disc plate microbiological assay
[8] = tested on: gram-positive and gram-negative microorganisms; assay: Antibacterial activity (general statement); format: cell-based
Stability = format: physicochemical

CNCC1=CC[C@@H](N)[C@@H](O[C@H]2[C@H](O)[C@@H](O[C@H]3OC[C@](C)(O)[C@H](NC)[C@H]3O)[C@H](N)C[C@@H]2N)O1 [Antibiotic G-52]
ED50 (Escherichia coli): 2.5 mg/kg
ED50 (Pseudomonas aeruginosa): 1.5 mg/kg
ED50 [1]: 2.5 mg/kg
MIC (Streptococcus pyogenes C): 25 µg/mL (≈ 54.2 µM)
MIC (Escherichia coli 578): 7.5 µg/mL (≈ 16.2 µM)
MIC [2]: 0.8 µg/mL (≈ 1.73 µM)
MIC (Proteus mirabilis 8019): 7.5 µg/mL (≈ 16.2 µM)
MIC (Escherichia coli 11775): 3 µg/mL (≈ 6.5 µM)
MIC (Staphylococcus aureus 45): 0.8 µg/mL (≈ 1.73 µM)
MIC [3]: 0.3 µg/mL (≈ 0.65 µM)
MIC [4]: 25 µg/mL (≈ 54.2 µM)
MIC [5]: 25 µg/mL (≈ 54.2 µM)
MIC [6]: 17.5 µg/mL (≈ 37.9 µM)
solubility in organic solvents (Solubility; most polar organic solvents such as lower alcohols, dimethylformamide, dimethylsulfoxide, pyridine): some degree of solubility
solubility in water (Solubility; water): very soluble
LD50 (Acute Toxicity): 400 mg/kg
zone of inhibition at 1 µg/disc ([7]; Staphylococcus aureus): 17.7 ± 1 mm
potency (assay) ([7]; against standard antibiotic base (defined potency 1000 mcg/mg)): about 1000 mcg/mg
effect on growth of gram-positive and gram-negative microorganisms [8]: adversely affect the growth
stable to boiling (Stability; MacIlvaines buffer from pH 2-8): ≥ 30 min
stable to boiling (Stability; sodium hydroxide-boric acid buffer from pH 8-10): ≥ 30 min
